Broadly, the IC50 is the concentration at which inhibition is half-maximal.

Bounds are passed on as bounds.

We go through eight compounds from ChEMBL document CHEMBL3351718 (Bioorg Med Chem Lett, 2014).

The target in experiment [1] is Vascular endothelial growth factor receptor 2 (Homo sapiens, UniProt P35968). The experiment can be described thus: Inhibition of recombinant VEGFR2 kinase domain (unknown origin).
The target of experiment [2] is Mast/stem cell growth factor receptor Kit (Homo sapiens, UniProt P10721). Nature of the experiment: Inhibition of c-Kit (unknown origin).
Mast/stem cell growth factor receptor Kit, sequence (P10721 whole entry): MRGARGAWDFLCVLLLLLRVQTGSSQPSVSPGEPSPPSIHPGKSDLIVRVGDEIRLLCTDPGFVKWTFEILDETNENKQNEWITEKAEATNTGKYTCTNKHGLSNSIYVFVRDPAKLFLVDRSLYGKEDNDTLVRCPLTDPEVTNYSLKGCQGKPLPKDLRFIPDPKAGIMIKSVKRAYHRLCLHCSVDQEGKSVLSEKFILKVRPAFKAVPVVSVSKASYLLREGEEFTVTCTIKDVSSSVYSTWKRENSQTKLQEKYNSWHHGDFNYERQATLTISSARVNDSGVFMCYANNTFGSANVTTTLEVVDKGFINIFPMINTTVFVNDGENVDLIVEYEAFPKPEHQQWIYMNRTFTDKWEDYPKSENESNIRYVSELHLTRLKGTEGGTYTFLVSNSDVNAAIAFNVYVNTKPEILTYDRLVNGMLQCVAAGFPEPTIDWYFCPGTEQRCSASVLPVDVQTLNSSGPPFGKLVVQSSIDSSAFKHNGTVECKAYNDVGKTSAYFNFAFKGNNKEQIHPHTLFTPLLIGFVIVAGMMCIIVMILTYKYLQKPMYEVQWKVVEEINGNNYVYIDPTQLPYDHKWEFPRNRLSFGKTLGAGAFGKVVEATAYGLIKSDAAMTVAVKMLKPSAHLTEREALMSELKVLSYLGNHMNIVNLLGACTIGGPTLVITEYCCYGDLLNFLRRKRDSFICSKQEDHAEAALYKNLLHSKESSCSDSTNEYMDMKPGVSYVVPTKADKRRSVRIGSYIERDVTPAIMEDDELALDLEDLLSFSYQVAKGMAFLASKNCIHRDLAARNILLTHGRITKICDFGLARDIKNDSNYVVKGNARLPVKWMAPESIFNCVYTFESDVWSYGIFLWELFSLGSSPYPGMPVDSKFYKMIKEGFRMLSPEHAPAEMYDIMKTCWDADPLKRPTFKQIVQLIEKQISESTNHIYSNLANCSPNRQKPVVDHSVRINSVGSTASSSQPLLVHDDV
Experiment [3] addresses Proto-oncogene tyrosine-protein kinase receptor Ret (Homo sapiens, UniProt P07949). The experiment can be described thus: Inhibition of RET (unknown origin).
Experiment [4] relates to HUVEC. The experiment can be described thus: Growth inhibition of HUVEC cells. The note with it: Homo sapiens.
Experiment [5] can be described thus: Growth inhibition of human MKN45 cells. The note with it: MKN-45.
The target of experiment [6] is Hepatocyte growth factor receptor (Homo sapiens, UniProt P08581). Nature of the experiment: Inhibition of recombinant MET kinase domain (unknown origin).
Hepatocyte growth factor receptor, sequence (P08581 whole entry, the tested form may be a part): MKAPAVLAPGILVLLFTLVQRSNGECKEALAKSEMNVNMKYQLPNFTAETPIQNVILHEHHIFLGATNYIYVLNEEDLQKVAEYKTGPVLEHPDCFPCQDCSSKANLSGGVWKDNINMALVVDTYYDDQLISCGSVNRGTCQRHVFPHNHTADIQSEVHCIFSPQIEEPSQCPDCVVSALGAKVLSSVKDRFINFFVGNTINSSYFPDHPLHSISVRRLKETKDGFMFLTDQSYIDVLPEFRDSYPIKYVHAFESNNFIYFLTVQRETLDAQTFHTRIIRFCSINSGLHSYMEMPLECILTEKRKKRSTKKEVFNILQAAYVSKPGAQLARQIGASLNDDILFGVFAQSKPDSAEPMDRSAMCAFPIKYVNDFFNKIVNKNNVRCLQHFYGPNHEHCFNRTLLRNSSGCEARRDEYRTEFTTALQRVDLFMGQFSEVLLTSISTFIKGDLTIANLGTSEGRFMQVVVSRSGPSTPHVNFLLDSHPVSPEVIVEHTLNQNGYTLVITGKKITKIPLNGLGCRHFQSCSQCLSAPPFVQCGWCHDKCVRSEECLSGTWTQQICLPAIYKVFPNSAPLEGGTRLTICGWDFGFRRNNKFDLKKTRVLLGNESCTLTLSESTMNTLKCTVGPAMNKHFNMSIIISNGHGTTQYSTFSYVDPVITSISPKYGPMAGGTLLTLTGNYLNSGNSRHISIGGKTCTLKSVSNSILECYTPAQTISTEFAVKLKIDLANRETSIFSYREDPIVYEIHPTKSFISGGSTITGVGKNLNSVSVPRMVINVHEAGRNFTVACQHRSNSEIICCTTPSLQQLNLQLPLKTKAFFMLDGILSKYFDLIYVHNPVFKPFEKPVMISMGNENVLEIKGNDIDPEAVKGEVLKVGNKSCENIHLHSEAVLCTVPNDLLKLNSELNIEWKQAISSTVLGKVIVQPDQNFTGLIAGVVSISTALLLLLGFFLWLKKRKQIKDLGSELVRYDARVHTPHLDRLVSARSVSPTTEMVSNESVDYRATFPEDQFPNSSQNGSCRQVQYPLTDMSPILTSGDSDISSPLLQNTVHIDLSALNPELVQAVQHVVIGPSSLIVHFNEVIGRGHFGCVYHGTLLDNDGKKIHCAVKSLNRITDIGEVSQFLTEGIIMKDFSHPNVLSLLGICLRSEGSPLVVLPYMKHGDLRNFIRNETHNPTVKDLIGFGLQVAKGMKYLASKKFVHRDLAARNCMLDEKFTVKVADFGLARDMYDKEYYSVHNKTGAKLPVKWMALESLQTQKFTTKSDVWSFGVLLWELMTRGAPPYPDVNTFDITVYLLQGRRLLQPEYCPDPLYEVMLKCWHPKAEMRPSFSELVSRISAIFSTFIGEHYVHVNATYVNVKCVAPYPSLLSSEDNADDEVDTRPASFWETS

Vascular endothelial growth factor receptor 2, sequence (P35968 whole entry, the tested form may be a part): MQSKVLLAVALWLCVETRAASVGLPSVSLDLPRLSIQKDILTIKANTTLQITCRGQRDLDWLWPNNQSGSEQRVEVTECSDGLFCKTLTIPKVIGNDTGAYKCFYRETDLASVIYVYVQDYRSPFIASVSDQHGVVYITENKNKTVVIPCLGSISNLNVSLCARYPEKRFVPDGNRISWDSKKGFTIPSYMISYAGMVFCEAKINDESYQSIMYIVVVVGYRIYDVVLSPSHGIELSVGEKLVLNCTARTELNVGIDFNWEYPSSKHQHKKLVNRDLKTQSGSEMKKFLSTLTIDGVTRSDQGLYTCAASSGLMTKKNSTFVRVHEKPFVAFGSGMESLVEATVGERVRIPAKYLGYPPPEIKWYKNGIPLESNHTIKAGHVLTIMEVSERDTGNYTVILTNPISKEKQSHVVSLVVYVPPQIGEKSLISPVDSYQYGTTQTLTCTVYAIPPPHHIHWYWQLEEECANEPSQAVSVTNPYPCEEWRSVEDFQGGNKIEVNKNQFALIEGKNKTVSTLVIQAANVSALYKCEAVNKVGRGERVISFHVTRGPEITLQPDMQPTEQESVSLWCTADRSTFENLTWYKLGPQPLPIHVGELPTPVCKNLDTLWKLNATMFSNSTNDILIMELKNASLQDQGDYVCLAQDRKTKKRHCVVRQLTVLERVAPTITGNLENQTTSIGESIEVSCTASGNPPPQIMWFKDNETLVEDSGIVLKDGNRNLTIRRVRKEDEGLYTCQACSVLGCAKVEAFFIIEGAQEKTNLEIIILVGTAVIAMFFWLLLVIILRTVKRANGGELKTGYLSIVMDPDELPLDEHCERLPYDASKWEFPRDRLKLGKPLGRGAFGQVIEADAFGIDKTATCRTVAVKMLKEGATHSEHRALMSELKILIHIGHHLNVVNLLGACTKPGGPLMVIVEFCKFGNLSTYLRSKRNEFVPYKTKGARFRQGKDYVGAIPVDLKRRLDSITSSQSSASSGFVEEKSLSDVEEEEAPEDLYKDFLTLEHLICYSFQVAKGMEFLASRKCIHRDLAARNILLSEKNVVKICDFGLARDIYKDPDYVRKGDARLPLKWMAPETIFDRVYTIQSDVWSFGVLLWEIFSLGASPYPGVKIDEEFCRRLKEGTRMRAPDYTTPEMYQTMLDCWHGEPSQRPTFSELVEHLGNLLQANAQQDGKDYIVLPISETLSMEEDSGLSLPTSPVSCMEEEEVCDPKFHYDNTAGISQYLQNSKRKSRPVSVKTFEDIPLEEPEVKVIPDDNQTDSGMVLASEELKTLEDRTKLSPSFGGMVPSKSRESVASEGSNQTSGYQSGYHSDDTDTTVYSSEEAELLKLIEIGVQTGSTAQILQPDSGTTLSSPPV
Proto-oncogene tyrosine-protein kinase receptor Ret, sequence (P07949 whole entry): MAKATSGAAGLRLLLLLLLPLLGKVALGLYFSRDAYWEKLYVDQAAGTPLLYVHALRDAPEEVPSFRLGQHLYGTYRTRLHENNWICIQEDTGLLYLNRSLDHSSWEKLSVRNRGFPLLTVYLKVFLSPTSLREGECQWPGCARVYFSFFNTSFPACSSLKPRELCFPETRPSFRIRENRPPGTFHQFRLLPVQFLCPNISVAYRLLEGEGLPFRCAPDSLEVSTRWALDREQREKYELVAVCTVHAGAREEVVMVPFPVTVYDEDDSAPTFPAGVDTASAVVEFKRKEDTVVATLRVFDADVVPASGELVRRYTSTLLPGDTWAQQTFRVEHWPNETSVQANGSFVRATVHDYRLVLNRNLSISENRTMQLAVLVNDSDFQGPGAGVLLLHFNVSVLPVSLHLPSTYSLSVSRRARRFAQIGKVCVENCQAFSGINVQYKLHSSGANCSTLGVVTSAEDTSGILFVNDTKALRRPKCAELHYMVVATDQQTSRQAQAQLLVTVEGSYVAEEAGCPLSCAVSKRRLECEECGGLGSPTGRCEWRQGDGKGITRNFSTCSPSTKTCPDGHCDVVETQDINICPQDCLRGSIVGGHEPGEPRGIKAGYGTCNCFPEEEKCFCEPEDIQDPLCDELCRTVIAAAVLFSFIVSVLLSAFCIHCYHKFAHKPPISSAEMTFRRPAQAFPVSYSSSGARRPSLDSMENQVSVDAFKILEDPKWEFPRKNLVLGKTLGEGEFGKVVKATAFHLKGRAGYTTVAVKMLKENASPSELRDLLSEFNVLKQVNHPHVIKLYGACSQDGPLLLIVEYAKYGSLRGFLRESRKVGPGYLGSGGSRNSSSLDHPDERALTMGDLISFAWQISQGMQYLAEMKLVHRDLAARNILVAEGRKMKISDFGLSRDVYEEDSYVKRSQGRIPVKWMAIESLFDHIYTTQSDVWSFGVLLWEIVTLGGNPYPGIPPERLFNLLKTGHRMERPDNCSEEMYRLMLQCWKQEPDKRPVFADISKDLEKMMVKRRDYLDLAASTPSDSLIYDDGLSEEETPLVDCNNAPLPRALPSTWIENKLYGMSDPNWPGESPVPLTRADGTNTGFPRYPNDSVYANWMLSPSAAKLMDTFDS

Consider `COc1cc(=O)n(-c2ccc(Oc3ccnc(N)c3I)c(F)c2)cc1C(=O)NCc1ccc(F)cc1`, for which the IC50 in experiment [1] was greater than 25 µM; in experiment [2], greater than 25 µM; in experiment [3], greater than 25 µM; in experiment [4], 2.41 µM; in experiment [5], greater than 25 µM.

For `Nc1nccc(Oc2ccc(-n3cccc(C(=O)Nc4ccc(F)cc4)c3=O)cc2F)c1Cl`, in experiment [6], the IC50 was greater than 25 µM.

Consider `COc1cc(=O)n(-c2ccc(Oc3ccnc(N)c3Cl)c(F)c2)cc1C(=O)NCc1ccc(F)cc1`, for which the IC50 was greater than 25 µM in experiment [1]; greater than 25 µM in experiment [2]; greater than 25 µM in experiment [3]; 2.41 µM in experiment [4]; greater than 25 µM in experiment [5].

For the compound `Nc1nccc(Oc2ccc(-n3cc(C(=O)NCc4ccc(F)cc4)ccc3=O)cc2F)c1Cl`, the IC50 in experiment [1] is greater than 25 µM.

Take `Nc1nccc(Oc2ccc(-n3cccc(C(=O)NCc4ccc(F)cc4)c3=O)cc2F)c1Cl`: the IC50 in experiment [6] was greater than 25 µM.

For the compound `Nc1nccc(Oc2ccc(-n3cc(C(=O)Nc4ccc(F)cc4)ccc3=O)cc2F)c1Cl`, the IC50 in experiment [6] was greater than 25 µM.

As to `Nc1nccc(Oc2ccc(-n3ccc(C(=O)Nc4ccc(F)cc4)cc3=O)cc2F)c1Cl`, the IC50 in experiment [6] is greater than 25 µM.

For the compound `Nc1nccc(Oc2ccc(-n3ccc(C(=O)NCc4ccc(F)cc4)cc3=O)cc2F)c1Cl`, the IC50 in experiment [6] is greater than 25 µM.
